Measurements from patent US20080039377A1, “Composition Comprising a Jnk Inhibitor and Cyclosporin” (Applied Research Systems ARS Holding N.V., priority 2004, published 2008).

Test system: model of global ischemia in gerbils
Assay: Neuroprotective effect of a JNK inhibitor combined with cyclosporin in a model of global ischemia in gerbils
Format: in vivo
Details: for neuroprotective effects (hippocampal damage assessed by histology): compared to vehicle and to JNK inhibitor alone
Description: In Vivo Assay: Neuroprotective Effect of a JNK Inhibitor Combined with Cyclosporin in a Model of Global Ischemia in Gerbils
The following assay aims at determining the neuroprotective effect of the test compositions in a model of global ischemia in gerbils, in vivo.
A total of 73 gerbils (60-80 g; obtained from Elevage Janvier, France) were provided. 4 groups, each consisting of 6-36 animals were formed: • Group 1 (n=36): The animals were administered (ip) a dose of 10 ml/kg of vehicle. • Group 2 (n=6): The animals were administered (ip) a dose of 15 mg/kg of cyclosporine. • Group 3 (n=8): The animals were administered (ip) a dose of 60 or 40 mg/kg of a JNK inhibitor according to formula (I) or (II). • Group 4 (n=7-8): The animals were administered (ip) a dose of the test composition containing 60 or 40 mg/kg of a JNK inhibitor according to formula (I) or (II) together with 15 mg/kg cyclosporine.
Surgery. Gerbils weighting 60-80 g were anaesthetized with 4% isoflurane (Baxter, Volketswil, Switzerland) in medical air, administered via facemask. The anaesthesia was then maintained using 3% isoflurane until the end of surgery. Bilateral common carotid arteries were dissected and occluded with bulldog clamps for 5 min.
Histology. Seven days after the onset of occlusion, the animals were killed by decapitation. The brains were frozen at −20° C. in 2-methylbutane and cut in 20 μm-thick sections in a cryocut (Microm HM 5000M, Walldorf, Germany). The sections were stained with cresyl violet acetate and the lesion in the hippocampus were scored within a 5-point scale: • Score 0: No loss of CA1 neurons; • Score 1: Weak damage of CA1 (CA1/Subiculum or CA1/CA3 border); • Score 2: Loss of CA1 neurons (<1/2); • Score 3: Loss of CA1 neurons (>1/2); and • Score 4: Total loss of CA1 neurons and expanding into other areas (CA3, Dentate gyrus, Cortex). The total score was obtained as the sum of scores in the right and left hemispheres.

N#CC(c1ccnc(NCCc2cccnc2)n1)c1nc2ccccc2s1 (centres unmarked) [Compound A, 1,3-benzothiazol-2-yl(2-{[2-(3-pyridinyl)ethyl]amino}-4-pyrimidinyl)acetonitrile]
neuroprotective effects (hippocampal damage assessed by histology) (JNK inhibitor 60 mg/kg ip with Cyclosporin 15 mg/kg ip): increases the neuroprotective effects | Histological score Mean ± SEM (Table I, Group 2: JNK inhibitor 0 mg/kg ip, Cyclosporine A 15 mg/kg ip, hippocampal lesion score (sum of both hemispheres, 0-4 each) 7 days after 5 min bilateral carotid occlusion): 6.0 ± 0.0 | Histological score Mean ± SEM (Table I, Group 3: JNK inhibitor 60 mg/kg ip, Cyclosporine A 0 mg/kg, hippocampal lesion score 7 days after occlusion): 3.6 ± 0.8 | Histological score Mean ± SEM (Table I, Group 4: JNK inhibitor 60 mg/kg ip together with Cyclosporine A 15 mg/kg ip, hippocampal lesion score 7 days after occlusion): 1.3 ± 0.6

CC#N.CCCCNC1CCN(S(=O)(=O)c2ccc(CNC(=O)c3ccc(Cl)cc3)s2)CC1 [Compound B, 4-chloro-N-[(5-{[4-(butylamino)piperidin-1-yl]sulfonyl}thien-2-yl)methyl]benzamide acetonitrile]
neuroprotective effects (hippocampal damage assessed by histology) (JNK inhibitor 40 mg/kg ip with Cyclosporin 15 mg/kg ip): increases the neuroprotective effects | Histological score Mean ± SEM (Table II, Group 2: JNK inhibitor 0 mg/kg ip, Cyclosporine A 15 mg/kg ip, hippocampal lesion score 7 days after occlusion): 6.0 ± 0.0 | Histological score Mean ± SEM (Table II, Group 3: JNK inhibitor 60 mg/kg ip, Cyclosporine A 0 mg/kg, hippocampal lesion score 7 days after occlusion): 5.3 ± 0.5 | Histological score Mean ± SEM (Table II, Group 4: JNK inhibitor 60 mg/kg ip together with Cyclosporine A 15 mg/kg ip, hippocampal lesion score 7 days after occlusion): 2.1 ± 0.6
